Results from patent publication US10131652B2, “Pyrimidinyloxy benzene derivatives as herbicides” (E. I. DU PONT DE NEMOURS AND COMPANY, priority 2014, dated 2018).
Read-outs that look alike come from different tables or passages of the source.

Assays:
Assay in all cases: Test E pre-/postemergence plant response
Type in all cases: in vivo
[1] = test system: wild mustard (Sinapis arvensis); details: Brassica, scale 0 to 100, read-out: Plant response rating, Mustard, Wild; for pest or weed control at 16 g/ha: 16 g ai/ha; for pest or weed control at 31 g/ha: 31 g ai/ha; for pest or weed control at 62 g/ha: 62 g ai/ha; for pest or weed control at 125 g/ha: 125 g ai/ha
Summary of the method: (§1)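 Pre-emergence: seeds sown in silt loam soil and sprayed with test chemicals in a non-phytotoxic solvent/surfactant mix. Post-emergence: plants at 2–18 cm (1- to 4-leaf stage) in peat/vermiculite medium treated with the same formulation. Visual rating versus controls after 7–21 days, 0 (no effect) to 100 (complete control).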

[2] = test system: oilseed rape (Brassica napus); details: scale 0 to 100, read-out: Plant response rating, Oilseed Rape; for plant injury at 16 g/ha: 16 g ai/ha; for plant injury at 31 g/ha: 31 g ai/ha; for plant injury at 62 g/ha: 62 g ai/ha; for plant injury at 125 g/ha: 125 g ai/ha
Summary of the method: as §1

[3] = test system: chamomile (scentless chamomile, Matricaria inodora); details: Tripleurospermum inodorum, post-emergence, Postemergence, scale 0 to 100, read-out: Plant response rating, Chamomile
Summary of the method: as §1

[4] = test system: spring barley (Hordeum vulgare); details: for plant injury at 16 g/ha: 16 g ai/ha; for plant injury at 31 g/ha: 31 g ai/ha; for plant injury at 62 g/ha: 62 g ai/ha; for plant injury at 125 g/ha: 125 g ai/ha
Summary of the method: as §1

[5] = test system: field poppy (Papaver rhoeas); details: scale 0 to 100, read-out: Plant response rating, Field Poppy; for pest or weed control at 16 g/ha: 16 g ai/ha; for pest or weed control at 31 g/ha: 31 g ai/ha; for pest or weed control at 62 g/ha: 62 g ai/ha; for pest or weed control at 125 g/ha: 125 g ai/ha
Summary of the method: as §1

[6] = test system: spring wheat (Triticum aestivum); details: scale 0 to 100, read-out: Plant response rating, Wheat, Spring; for plant injury at 16 g/ha: 16 g ai/ha; for plant injury at 62 g/ha: 62 g ai/ha; for plant injury at 125 g/ha: 125 g ai/ha
Summary of the method: as §1

[7] = test system: galium (catchweed bedstraw, Galium aparine); details: scale 0 to 100, read-out: Plant response rating, Galium; for pest or weed control at 16 g/ha: 16 g ai/ha; for pest or weed control at 31 g/ha: 31 g ai/ha; for pest or weed control at 62 g/ha: 62 g ai/ha; for pest or weed control at 125 g/ha: 125 g ai/ha
Summary of the method: as §1

[8] = test system: chickweed (common chickweed, Stellaria media); details: scale 0 to 100, read-out: Plant response rating, Chickweed; for pest or weed control at 16 g/ha: 16 g ai/ha; for pest or weed control at 31 g/ha: 31 g ai/ha; for pest or weed control at 62 g/ha: 62 g ai/ha; for pest or weed control at 125 g/ha: 125 g ai/ha
Summary of the method: as §1

[9] = test system: field violet (Viola arvensis); details: scale 0 to 100, read-out: Plant response rating, Field Violet; for pest or weed control at 16 g/ha: 16 g ai/ha; for pest or weed control at 31 g/ha: 31 g ai/ha; for pest or weed control at 62 g/ha: 62 g ai/ha; for pest or weed control at 125 g/ha: 125 g ai/ha
Summary of the method: as §1

[10] = test system: wild buckwheat (Polygonum convolvulus); details: Fallopia convolvulus, scale 0 to 100, read-out: Plant response rating, Buckwheat, Wild; for pest or weed control at 16 g/ha: 16 g ai/ha; for pest or weed control at 31 g/ha: 31 g ai/ha; for pest or weed control at 62 g/ha: 62 g ai/ha; for pest or weed control at 125 g/ha: 125 g ai/ha
Summary of the method: as §1

[11] = test system: speedwell (bird's-eye speedwell, Veronica persica); details: scale 0 to 100, read-out: Plant response rating, Speedwell; for pest or weed control at 16 g/ha: 16 g ai/ha; for pest or weed control at 62 g/ha: 62 g ai/ha; for pest or weed control at 125 g/ha: 125 g ai/ha
Summary of the method: as §1

[12] = post-emergence, Postemergence, scale 0 to 100, read-out: Plant response rating, Barley, Spring
[13] = pre-emergence, Preemergence, scale 0 to 100, read-out: Plant response rating, Barley, Spring
[14] = post-emergence, 31 g ai/ha, Postemergence

## FC(F)c1cc(-c2ccccc2Oc2ncc(Cl)cn2)on1 [Compound 53, 5-chloro-2-[2-[3-(difluoromethyl)-5-isoxazolyl]phenoxy]pyrimidine]
[1]; post-emergence, Postemergence
  pest or weed control at 16 g/ha: 65%
  pest or weed control at 31 g/ha: 75%
  pest or weed control at 62 g/ha: 95%
  pest or weed control at 125 g/ha: 95%
[1]; pre-emergence, Preemergence
  pest or weed control at 16 g/ha: 90%
  pest or weed control at 31 g/ha: 100%
  pest or weed control at 62 g/ha: 100%
  pest or weed control at 125 g/ha: 100%
[2]; post-emergence, Postemergence
  plant injury at 16 g/ha: 70%
  plant injury at 31 g/ha: 75%
  plant injury at 62 g/ha: 80%
  plant injury at 125 g/ha: 80%
[2]; pre-emergence, Preemergence
  plant injury at 16 g/ha: 50%
  plant injury at 31 g/ha: 75%
  plant injury at 62 g/ha: 100%
  plant injury at 125 g/ha: 100%
[3]; 16 g ai/ha
  pest or weed control at 16 g/ha: 5%
[3]; 31 g ai/ha
  pest or weed control at 31 g/ha: 5%
[3]; 62 g ai/ha
  pest or weed control at 62 g/ha: 5%
[3]; 125 g ai/ha
  pest or weed control at 125 g/ha: 0%
[4]; [12]
  plant injury at 16 g/ha: 5%
  plant injury at 31 g/ha: 5%
  plant injury at 62 g/ha: 10%
[4]; post-emergence, Postemergence, scale 0 to 100 (0 no effect, 100 complete control), read-out: Plant response rating, Barley, Spring
  plant injury at 125 g/ha: 10%
[4]; [13]
  plant injury at 16 g/ha: 35%
  plant injury at 31 g/ha: 35%
  plant injury at 62 g/ha: 35%
  plant injury at 125 g/ha: 35%
[5]; post-emergence, Postemergence
  pest or weed control at 16 g/ha: 60%
  pest or weed control at 31 g/ha: 65%
  pest or weed control at 62 g/ha: 80%
  pest or weed control at 125 g/ha: 80%
[5]; pre-emergence, Preemergence
  pest or weed control at 16 g/ha: 100%
  pest or weed control at 31 g/ha: 100%
  pest or weed control at 62 g/ha: 100%
  pest or weed control at 125 g/ha: 100%
[6]; post-emergence, Postemergence
  plant injury at 16 g/ha: 10%
  plant injury at 62 g/ha: 20%
  plant injury at 125 g/ha: 35%
[6]; [14]
  plant injury at 31 g/ha: 10%
[6]; pre-emergence, Preemergence
  plant injury at 16 g/ha: 5%
  plant injury at 62 g/ha: 10%
  plant injury at 125 g/ha: 10%
[7]; post-emergence, Postemergence
  pest or weed control at 16 g/ha: 75%
  pest or weed control at 31 g/ha: 75%
  pest or weed control at 62 g/ha: 75%
  pest or weed control at 125 g/ha: 75%
[7]; pre-emergence, Preemergence
  pest or weed control at 16 g/ha: 25%
  pest or weed control at 31 g/ha: 30%
  pest or weed control at 62 g/ha: 60%
  pest or weed control at 125 g/ha: 100%
[8]; post-emergence, Postemergence
  pest or weed control at 16 g/ha: 30%
  pest or weed control at 31 g/ha: 50%
  pest or weed control at 62 g/ha: 60%
  pest or weed control at 125 g/ha: 65%
[8]; pre-emergence, Preemergence
  pest or weed control at 16 g/ha: 100%
  pest or weed control at 31 g/ha: 100%
  pest or weed control at 62 g/ha: 100%
  pest or weed control at 125 g/ha: 100%
[9]; post-emergence, Postemergence
  pest or weed control at 16 g/ha: 25%
  pest or weed control at 31 g/ha: 50%
  pest or weed control at 62 g/ha: 70%
  pest or weed control at 125 g/ha: 70%
[9]; pre-emergence, Preemergence
  pest or weed control at 16 g/ha: 50%
  pest or weed control at 31 g/ha: 25%
  pest or weed control at 62 g/ha: 60%
  pest or weed control at 125 g/ha: 100%
[10]; post-emergence, Postemergence
  pest or weed control at 16 g/ha: 70%
  pest or weed control at 31 g/ha: 65%
  pest or weed control at 62 g/ha: 90%
  pest or weed control at 125 g/ha: 95%
[10]; pre-emergence, Preemergence
  pest or weed control at 16 g/ha: 65%
  pest or weed control at 31 g/ha: 100%
  pest or weed control at 62 g/ha: 100%
  pest or weed control at 125 g/ha: 100%
[11]; post-emergence, Postemergence
  pest or weed control at 16 g/ha: 60%
  pest or weed control at 62 g/ha: 95%
  pest or weed control at 125 g/ha: 100%
[11]; [14]
  pest or weed control at 31 g/ha: 60%
[11]; pre-emergence, Preemergence
  pest or weed control at 16 g/ha: 100%
  pest or weed control at 62 g/ha: 100%
  pest or weed control at 125 g/ha: 100%
